Measured values as given in patent US8663616B2, “Enzymatic peracid generation for use in oral care products” (E I du Pont de Nemours and Company, priority 2010, dated 2014).

What was measured:
[1] = Peracetic acid vs hydrogen peroxide bleaching of coffee/tea stained bovine enamel (whiteness index); settings: for ΔWI: 0 to 61 min; for Whiteness Index 0 min: before exposure
Description: This example describes the use of peracetic acid to achieve a bleaching effect on model stained enamel surfaces. Bovine enamel incisors were obtained from SE Dental (Baton Rouge, La.). Teeth were sectioned and cut into enamel slabs approximately 7 mm on each side using a DREMEL® rotary saw (Robert Bosch Power Tool Corporation; Chicago, Ill.) with a diamond blade. The enamel slabs were cleaned and lightly polished to remove surface debris. The enamel was pretreated with a mixture of coffee and tea for 1-5 days in order to stain to a color similar to human stained teeth.
Each enamel block was hydrated in water for at least 1 hr prior to use. Color measurements for the substrate were obtained prior to exposure to test solutions. Solutions of peracetic acid were prepared from a 32% stock in 500 mM sodium phosphate buffer, pH 7.2. A solution of 2.5% H2O2 was also prepared in the same buffer. Multiple enamel blocks were exposed to each solution for 1 min followed by additional exposures of 5 min, 10 min, 15 min and 30 min. For each treatment, a fresh solution of peracetic acid and hydrogen peroxide was prepared from the stock solutions. After each treatment the enamel blocks were rinsed with water and measured with a Konica-Minolta 2600d spectrophotometer.
(§1) Whiteness index (WI) is defined by the International Commission on Illumination (CIE) and described in ASTM method E313-05 and calculated for D65/10 incident light as: WI=Y+800*(0.3138−x)+1700*(0.3310−y) Where Y, x, and y are the luminance factor and the chromaticity coordinates respectively of the enamel substrate.

[2] = One-step bleaching of stained bovine enamel with perhydrolase system (Example 12)
Description: as §1
(§2) The purpose of this example is to show the tooth bleaching effect of enzymatic generated peracetic acid in a one-step application and compare to the performance achieved with chemically derived peracetic acid. Two methods were developed to use a perhydrolytic enzyme (CE-7 perhydrolase) system to achieve the target level of tooth bleaching. The first method (referred to herein as the “one-step approach”) comprises combining different amounts of at least one CE-7 perhydrolase with triacetin (an example of a suitable ester substrate) and hydrogen peroxide to generate peracetic acid using model stained enamel substrates. Bovine enamel incisors were prepared as indicated in Example 1. Stained bovine enamel blocks were hydrated in water at least 1 hr prior to use to stabilize the color of the substrate. The color for each enamel block was measured after hydration prior to the start of the experiment. Three enamel samples were treated for each solution type. The solutions used were a buffer only control, 2.5% H2O2, 1% peracetic acid, a perhydrolase composition including 10 μM EZ-1 (C277S; SEQ ID NO: 424), 100 mM triacetin and 250 mM H2O2 and a no enzyme control of 100 mM triacetin and 250 mM H2O2. All solutions were prepared in 500 mM sodium phosphate buffer, pH 7.2. The high buffer strength was necessary to maintain the 1% peracetic acid solution at neutral pH. All solutions were freshly prepared for each treatment point. The enzyme-triacetin-H2O2 combination and triacetin-H2O2 combination was mixed immediately before enamel exposure. After each treatment step, each enamel block was rinsed with water and a color measurement was obtained. A total treatment time of 61 min was used with durations of exposure of 1 min, 5 min, 10 min, 15 min and 30 min. The concentration of peracetic acid in solution after the 1 min, 10 min and 30 min treatments was evaluated by colorimetric detection of ABTS oxidation.

[3] = Peracetic acid in treatment solution by ABTS absorbance (Example 12); assay type: biochemical; settings: 1:100 dilution into ABTS reagent
Description: as §2
(§3) Determination of the peracetic acid (PAA) concentration in the reaction mixtures by a colorimetric method was performed according to the method described by Dinu et. al. (supra). A reagent solution of 1 mM 2,2′-azino-bis(3-ethylbenzothiazoline)-6-sulfonate (ABTS), 50 μM potassium iodide in 125 mM potassium citrate buffer at pH 5.0 was prepared. […] The solution was analyzed for absorbance at 405 nm using a Microplate reader. A comparison of relative amounts of peracetic acid in solution was determined by comparing absorbance values directly.

[4] = One-step bleaching of stained bovine enamel with targeted perhydrolase (Example 13); settings: 0.1% PAA
Method: as §1
(§4) Bovine enamel incisors were prepared as indicated in Example 1. Stained bovine enamel blocks were hydrated in water at least 1 h prior to use to stabilize the color of the substrate. The color for each enamel block was measured after hydration prior to the start of the experiment. Two enamel samples were treated for each solution type. The solutions used were a buffer only control, 0.1% Peracetic Acid, a perhydrolase composition including 0.52 μM EZ-7 (C277S with enamel binding domain; SEQ ID NO: 429), 100 mM triacetin and 32.6 mM H2O2. All solutions were prepared in 100 mM sodium phosphate buffer, pH 7.2. All solutions were freshly prepared for each treatment point. The enzyme-triacetin-H2O2 combination was mixed immediately before enamel exposure. After each treatment step, each enamel block was rinsed with water and a color measurement was obtained. A treatment time of 30 min was repeated 4 times for each set of enamel substrates. The concentration of peracetic acid in solution after a 30 min treatment was evaluated by colorimetric detection of ABTS oxidation.

[5] = Peracetic acid in treatment solution by ABTS (Example 13); assay type: biochemical; settings: after 30 min treatment
Method: as §3, §4

Structure (SMILES): CC(=O)OO [PAA, peracetic acid]
- ΔWI ([1]; Table 1, 2.5% H2O2 or 0.5% PAA): 90.8
- Whiteness Index 1 min ([1]; Table 1, 2.5% H2O2 or 0.5% PAA, cumulative exposure 1 min): −111.6
- Whiteness Index 6 min ([1]; Table 1, 2.5% H2O2 or 0.5% PAA, cumulative exposure 6 min): −80.7
- Whiteness Index 16 min ([1]; Table 1, 2.5% H2O2 or 0.5% PAA, cumulative exposure 16 min): −56.5
- Whiteness Index 31 min ([1]; Table 1, 2.5% H2O2 or 0.5% PAA, cumulative exposure 31 min): −44.5
- Whiteness Index 61 min ([1]; Table 1, 2.5% H2O2 or 0.5% PAA, cumulative exposure 61 min): −38.3
- Whiteness Index 0 min ([1]; Table 1, 2.5% H2O2 or 0.5% PAA, 500 mM sodium phosphate pH 7.2): −129.1
- Whiteness Index 1 min ([1]; Table 2, 0.05% PAA): −97.1
- Whiteness Index 6 min ([1]; Table 2, 0.05% PAA): −93.1
- Whiteness Index 16 min ([1]; Table 2, 0.05% PAA): −70.1
- Whiteness Index 31 min ([1]; Table 2, 0.05% PAA): −59.0
- Whiteness Index 61 min ([1]; Table 2, 0.05% PAA): −34.7
- ΔWI ([1]; Table 2, 0.05% PAA): 68.7
- Whiteness Index 0 min ([1]; Table 2, 0.05% PAA): −103.4
- Whiteness Index 1 min ([1]; Table 2, 0.2% PAA): −85.5
- Whiteness Index 6 min ([1]; Table 2, 0.2% PAA): −67.0
- Whiteness Index 16 min ([1]; Table 2, 0.2% PAA): −47.5
- Whiteness Index 31 min ([1]; Table 2, 0.2% PAA): −31.7
- Whiteness Index 61 min ([1]; Table 2, 0.2% PAA): −16.2
- ΔWI ([1]; Table 2, 0.2% PAA): 74.4
- Whiteness Index 0 min ([1]; Table 2, 0.2% PAA): −90.6
- Whiteness Index 1 min ([1]; Table 2, 0.5% PAA): −86.6
- Whiteness Index 6 min ([1]; Table 2, 0.5% PAA): −64.1
- Whiteness Index 16 min ([1]; Table 2, 0.5% PAA): −46.4
- Whiteness Index 31 min ([1]; Table 2, 0.5% PAA): −32.7
- Whiteness Index 61 min ([1]; Table 2, 0.5% PAA): −24.7
- ΔWI ([1]; Table 2, 0.5% PAA): 72.8
- Whiteness Index 0 min ([1]; Table 2, 0.5% PAA): −97.5
- Whiteness Index 1 min ([1]; Table 2, 1% PAA): −89.3
- Whiteness Index 16 min ([1]; Table 2, 1% PAA): −36.0
- Whiteness Index 31 min ([1]; Table 2, 1% PAA): −20.6
- Whiteness Index 61 min ([1]; Table 2, 1% PAA): −5.1
- ΔWI ([1]; Table 2, 1% PAA): 97.7
- Whiteness Index 0 min ([1]; Table 2, 1% PAA): −102.8
- bleaching of stained enamel (in words) ([1]; compared to buffer and hydrogen peroxide controls): effective bleaching agent
- Whiteness Index 0 min ([2]; before treatment, 2.5% H2O2, 100 mM triacetin/250 mM H2O2, 1% PAA, 10 μM EZ-1/100 mM triacetin/250 mM H2O2, pH 7.2): −145.7
- ΔWI ([2]; one-step, 0 to 61 min): 86.3
- Whiteness Index 1 min ([2]; one-step, cumulative treatment 1 min): −119.6
- Whiteness Index 6 min ([2]; one-step, cumulative treatment 6 min): −73.4
- Whiteness Index 16 min ([2]; one-step, cumulative treatment 16 min): −62.9
- Whiteness Index 31 min ([2]; one-step, cumulative treatment 31 min): −59.0
- Whiteness Index 61 min ([2]; one-step, cumulative treatment 61 min): −59.4
- Absorbance 405 nm, 1 min ([3]; peracetic acid at end of 1 min treatment): 2.579
- Absorbance 405 nm, 10 min ([3]; peracetic acid at end of 10 min treatment): 1.863
- Absorbance 405 nm, 30 min ([3]; peracetic acid at end of 30 min treatment): 2.874
- Whiteness Index 30 min [4]: −101.9
- Whiteness Index 60 min [4]: −91.9
- Whiteness Index 90 min [4]: −80.2
- Whiteness Index 120 min [4]: −70.8
- ΔWI ([4]; 0 to 120 min): 55.0
- Whiteness Index 0 min ([4]; before treatment, 100 mM sodium phosphate pH 7.2, average of two substrates): −125.8
- PAA (ppm) [5]: 920 ppm
- Absorbance 405 nm Tooth2 ([5]; 1:10 dilution into ABTS reagent): 1.043
- Absorbance 405 nm Tooth1 ([5]; 1:10 dilution into ABTS reagent, 0.1% PAA or 0.52 μM EZ-7/100 mM triacetin/32.6 mM H2O2): 1.103
